Assay [1] addresses T1, hTAS1R2 + hTAS1R3 H721A^ex2 (Homo sapiens, UniProt Q7RTX0+Q8TE23, H721A).
T1 construct: expressed in transfected cells; host or cells: HEK293T cells stably expressing G16Gust44
T1 sequence (Q8TE23 20-839): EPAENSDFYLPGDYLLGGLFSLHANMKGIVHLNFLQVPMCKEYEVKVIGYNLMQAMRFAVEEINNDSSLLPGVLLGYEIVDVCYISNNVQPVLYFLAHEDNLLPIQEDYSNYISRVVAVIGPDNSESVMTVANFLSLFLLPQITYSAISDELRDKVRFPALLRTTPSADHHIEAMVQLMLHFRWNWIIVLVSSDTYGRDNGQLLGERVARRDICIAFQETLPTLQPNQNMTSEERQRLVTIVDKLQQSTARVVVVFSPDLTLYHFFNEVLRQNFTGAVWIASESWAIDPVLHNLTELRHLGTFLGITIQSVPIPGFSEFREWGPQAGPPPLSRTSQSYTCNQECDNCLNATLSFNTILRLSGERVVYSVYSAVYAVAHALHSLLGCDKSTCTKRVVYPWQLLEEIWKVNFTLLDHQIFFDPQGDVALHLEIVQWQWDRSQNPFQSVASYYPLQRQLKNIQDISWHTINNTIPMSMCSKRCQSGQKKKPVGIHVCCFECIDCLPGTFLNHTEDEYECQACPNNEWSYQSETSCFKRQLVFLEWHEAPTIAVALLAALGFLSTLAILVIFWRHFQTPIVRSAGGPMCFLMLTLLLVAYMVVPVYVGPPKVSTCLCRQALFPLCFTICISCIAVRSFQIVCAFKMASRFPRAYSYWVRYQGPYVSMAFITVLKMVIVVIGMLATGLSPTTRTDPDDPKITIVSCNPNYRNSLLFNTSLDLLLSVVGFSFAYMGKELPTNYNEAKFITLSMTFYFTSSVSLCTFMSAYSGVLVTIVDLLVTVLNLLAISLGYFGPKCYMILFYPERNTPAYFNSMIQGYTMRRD
T1 sequence (Q7RTX0 21-852 H721A): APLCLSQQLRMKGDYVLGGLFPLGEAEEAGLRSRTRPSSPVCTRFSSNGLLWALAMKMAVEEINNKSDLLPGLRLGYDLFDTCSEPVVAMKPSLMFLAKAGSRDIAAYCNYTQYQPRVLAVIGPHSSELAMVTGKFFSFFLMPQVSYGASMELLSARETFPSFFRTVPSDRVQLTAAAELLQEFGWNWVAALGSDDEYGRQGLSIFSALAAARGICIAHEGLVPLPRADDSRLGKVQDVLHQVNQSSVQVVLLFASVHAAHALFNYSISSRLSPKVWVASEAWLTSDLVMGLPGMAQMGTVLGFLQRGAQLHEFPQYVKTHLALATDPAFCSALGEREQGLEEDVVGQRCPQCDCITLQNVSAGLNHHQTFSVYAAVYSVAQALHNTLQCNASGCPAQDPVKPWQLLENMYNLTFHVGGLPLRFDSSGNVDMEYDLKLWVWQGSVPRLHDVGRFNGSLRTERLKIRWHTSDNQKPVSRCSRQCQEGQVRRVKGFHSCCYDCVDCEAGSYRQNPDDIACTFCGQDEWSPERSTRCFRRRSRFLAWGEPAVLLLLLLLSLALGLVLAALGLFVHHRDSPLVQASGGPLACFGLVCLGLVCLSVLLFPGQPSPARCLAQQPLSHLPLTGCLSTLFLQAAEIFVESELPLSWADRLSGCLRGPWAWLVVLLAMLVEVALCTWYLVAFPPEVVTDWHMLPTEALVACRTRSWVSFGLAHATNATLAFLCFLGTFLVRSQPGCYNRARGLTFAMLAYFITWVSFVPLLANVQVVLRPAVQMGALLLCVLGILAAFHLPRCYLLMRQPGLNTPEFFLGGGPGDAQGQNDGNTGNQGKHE
Put plainly: Calcium response (FLIPR), hTAS1R3 mutant coexpressed with hTAS1R2. To be noted: variant H721A^ex2; for Emax: read-out: maximal signal (% of wt). The format is cell-based. The gist of the method: (§1)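 Each mutant receptor pair was expressed transiently in G16Gust44-expressing HEK293T cells; stimuli dissolved in C1 solution triggered calcium responses, recorded by fluorometric imaging and scaled to baseline fluorescence (ΔF/F) after mock correction, from at least three experiments run in duplicate.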

Assay [2] concerns the target T2, hTAS1R2 + hTAS1R3 S640A^3.32 (Homo sapiens, UniProt Q7RTX0+Q8TE23, S640A).
T2 construct: expressed in transfected cells; host or cells: HEK293T cells stably expressing G16Gust44
T2 sequence (Q8TE23 20-839): T1 sequence (Q8TE23 20-839)
T2 sequence (Q7RTX0 21-852 S640A): T1 sequence (Q7RTX0 21-852 H721A) with S620A, A701H
The description is as above. Format: cell-based. The conditions noted are these: variant S640A^3.32; for Emax: read-out: maximal signal (% of wt). The gist of the method: as §1

Broadly, the EC50 is the concentration that produces a half-maximal response.

Positions count from the first letter of the chain named. Where a SMILES comes first, the peptide text is derived from it.

`COc1ccc(CCC(=O)c2c(O)cc(O[C@@H]3O[C@H](CO)[C@@H](O)[C@H](O)[C@H]3O[C@@H]3O[C@@H](C)[C@H](O)[C@@H](O)[C@H]3O)cc2O)cc1O` [NHDC, neohesperidin dihydrochalcone]: in assay [1], the EC50 was found to be 800 ± 300 µM and the Emax turned out to be 66 ± 10%. Further, in assay [2], the EC50 is 800 ± 200 µM and the Emax turned out to be 63 ± 18%.

As for `COC(=O)[C@H](Cc1ccccc1)NC(=O)[C@@H](N)CC(=O)O` [aspartame] (HELM PEPTIDE1{D.F.[CO[*:1]]}$$$$V2.0), in assay [1], the EC50 stood at 1600 ± 300 µM and the Emax was 60 ± 40%. Also, in assay [2], the EC50 came to 1400 ± 500 µM and the Emax is 61 ± 40%.

Values taken from paper PMC2099433, “The binding site for neohesperidin dihydrochalcone at the human sweet taste receptor” (BMC Structural Biology, 2007).
